Data published in patent EP4644392A1, “PYRIDAZINE FUSED ARYL RING COMPOUND AND USE THEREOF” (Chia Tai Tianqing Pharmaceutical Group Co., Ltd., priority 2022, dated 2024).
pEC50: −log10 of the molar value. Where two headings read alike, the source gives them in different places.

How the values were obtained:
[1] = tested on: IL-1β expression in THP-1 cells; assay: In-vitro THP-1 cell (IL-1β) expression assay (LPS + nigericin, ELISA); type: cell-based; details: Homo sapiens; for inhibition at 0.001 µM: THP-1, read-out: 1 nM (% inhibition); for inhibition at 0.01 µM: THP-1, read-out: 10 nM (% inhibition); for inhibition at 0.1 µM: THP-1, read-out: 100 nM (% inhibition)
Procedure: THP-1 cells in good growth status were collected into a centrifuge tube, and the cell density was adjusted to 2 × 10^6 cells/mL. The cells were then seeded into a 96-well plate (50 µL/well), and meanwhile, LPS (manufacturer: Sigma; 50 µL/well) was added at a final concentration of 100 ng/mL. The plate was then incubated at 37 °C with 5% CO2 for 3 h. […] The plate was incubated at 37 °C with 5% CO2 for 1 h. Nigericin (manufacturer: Millipore; 50 µL/well) was added at a final concentration of 10 µM, and the plate was incubated at 37 °C with 5% CO2 for 1 h and then centrifuged at 1500 rpm for 3 min. The supernatant was collected and stored at -20 °C for subsequent detection of human IL-1β.
Human IL-1β detection (manufacturer: R&D): Human IL-1β Capture Antibody (coating antibody) was added to a high-binding 96-well plate at a final concentration of 4 µg/mL (100 µL/well), and the plate was incubated at 4 °C overnight. The supernatant was discarded, and the plate was washed with PBST (300 µL/well, 3 times in total). A 1% BSA-PBS blocking buffer was added (200 µL/well), and the plate was blocked at 25 °C for 2 h. The supernatant was discarded, and the plate was washed with PBST (300 µL/well, 3 times in total). A standard curve sample and the diluted samples to be tested were then added (100 µL/well), and the plate was incubated at 25 °C for 2 h. The supernatant was discarded, and the plate was washed with PBST (300 µL/well, 3 times total). Human IL-1β Detection Antibody (detection secondary antibody) was added at a final concentration of 200 ng/mL (100 µL/well), and the plate was incubated at 25 °C for 2 h. The supernatant was discarded, and the plate was washed with PBST (300 µL/well, 3 times in total). Streptavidin-HRP (detection tertiary antibody) was then added (100 µL/well), and the plate was incubated at 25 °C for 20 min. The supernatant was discarded, and the plate was washed with PBST (300 µL/well, 3 times in total). TMB was added for color development (100 µL/well), and the plate was incubated at 25 °C for 5 min. Finally, 1 M H2SO4 was added to terminate the reaction (50 µL/well). Absorbance values were measured at 450/570 nm using a PerkinElmer Envision microplate reader. Data were analyzed using a four-parameter model to calculate the IL-1β expression amount and inhibition rate. […]

J774A.1 cells = assay: Anti-pyroptosis activity assay in J774A.1 cells (CCK-8 readout, nigericin stimulation); type: cell-based; details: Mus musculus, J774.A1, nigericin 10 µM
[2] = In-vitro stability in liver microsomes; details: human liver microsomes 0.5 mg/mL, NADPH, 37 °C, 1 h
[3] = microsomes, 1 h

| SMILES | inhibition at 0.001 µM [1] | inhibition at 0.01 µM [1] | inhibition at 0.1 µM [1] | pEC50 (J774A.1 cells) | Human Remaining amount at 60 min (%) [2] | Human Remaining amount at 60 min (%) [3] |
| --- | --- | --- | --- | --- | --- | --- |
| C#Cc1ccc(-c2nnc(N[C@@H]3CCCN(C)C3)c3cccn23)c(O)c1 [Example 9] | ≥ 50% | ≥ 50% | ≥ 50% | > 7.00 | 98.65% | – |
| OCCN1CCC[C@@H](Nc2nnc(-c3ccc(C(F)(F)F)cc3O)n3cc4c(c23)CCC4)C1 [Example 8] | – | – | – | – | 79.13% | – |
| CN1CCC[C@@H](Nc2nnc(-c3ccc(C(F)(F)F)cc3O)c3cc4c(n23)CCC4)C1 [Example 6] | 10 to 50% | 10 to 50% | ≥ 50% | 6.00 to 7.00 | – | – |
| CS(=N)(=O)N1CCC[C@@H](Nc2nnc(-c3ccc(C(F)(F)F)cc3O)n3cccc23)C1 (stereo partly shown) [Example 25] | – | – | – | 6.00 to 7.00 | 98.06% | – |
| C=Cc1ccc(-c2nnc(N[C@@H]3CCCN(C)C3)c3cccn23)c(O)c1 [Example 12] | ≥ 50% | ≥ 50% | ≥ 50% | – | 100.53% | – |
| CN1CCC[C@@H](Nc2nnc(-c3ccc(C(F)(F)F)cc3O)n3cc4c(c23)CCC4)C1 [Example 5] | 10 to 50% | ≥ 50% | ≥ 50% | > 7.00 | 72.41% | – |
| Oc1cc(C(F)(F)F)ccc1-c1nnc(N[C@@H]2COC[C@H]2O)c2c3c(cn12)CCC3 [Example 16] | – | – | – | 6.00 to 7.00 | – | – |
| CN1CCC[C@@H](Nc2nnc(-c3ccc(C(F)(F)F)cc3O)n3cccc23)C1 [Example 1] | ≥ 50% | ≥ 50% | – | > 7.00 | 95.57% | – |
| O=S(=O)(C1CC1)N1CCC[C@@H](Nc2nnc(-c3ccc(C(F)(F)F)cc3O)n3cccc23)C1 [Example 24] | – | – | – | 6.00 to 7.00 | – | – |
| NS(=O)(=O)N1CCC[C@@H](Nc2nnc(-c3ccc(C(F)(F)F)cc3O)n3cccc23)C1 [Example 23] | – | – | – | > 7.00 | 93.93% | – |
| Oc1cc(C(F)(F)F)ccc1-c1nnc(N[C@@H]2COC[C@@H]2O)c2c3c(cn12)CCC3 [Example 17] | – | – | – | 6.00 to 7.00 | – | – |
| CS(=O)(=O)N1CCC[C@@H](Nc2nnc(-c3ccc(C(F)(F)F)cc3O)n3cccc23)C1 [Example 22] | – | – | – | 6.00 to 7.00 | – | – |
| CN1CCC[C@@H](Nc2nnc(-c3ccc(C(F)(F)F)cc3O)n3c2cc2sccc23)C1 [Example 3] | 10 to 50% | 10 to 50% | ≥ 50% | 6.00 to 7.00 | – | – |
| C[C@]1(O)C[C@@H](Nc2nnc(-c3ccc(C(F)(F)F)cc3O)n3cccc23)C1 [Example 15] | – | – | – | 6.00 to 7.00 | – | – |
| Oc1cc(C(F)(F)F)ccc1-c1nnc(N[C@@H]2CCCC[C@H]2O)c2c3c(cn12)CCC3 [Example 21] | – | – | – | > 7.00 | – | – |
| CN1CCC[C@@H](Nc2nnc(-c3ccc(C(F)(F)F)cc3O)c3cc4sccc4n23)C1 [Example 2] | 10 to 50% | 10 to 50% | ≥ 50% | > 7.00 | – | 80.23% |
| CN1CCC[C@@H](Nc2nnc(-c3ccc(C(F)(F)F)cc3O)n3c4c(cc23)CCC4)C1 [Example 7] | – | – | – | – | 90.01% | – |
| OCCN1CCC[C@@H](Nc2nnc(-c3ccc(C(F)(F)F)cc3O)c3c4c(cn23)CCC4)C1 [Example 14] | – | – | – | – | 93.13% | – |
| Oc1cc(Cl)ccc1-c1nnc(N[C@@H]2COC[C@H]2O)c2c3c(cn12)CCC3 [Example 18] | – | – | – | 6.00 to 7.00 | – | – |
| CC#Cc1ccc(-c2nnc(N[C@@H]3CCCN(C)C3)c3cccn23)c(O)c1 [Example 10] | – | – | – | – | 99.00% | – |
| CN1CCC[C@@H](Nc2nnc(-c3ccc(Cl)cc3O)n3cccc23)C1 [Example 13] | – | – | – | > 7.00 | – | – |
| CN1CCC[C@@H](Nc2nnc(-c3ccc(C(F)(F)F)cc3O)c3c4c(cn23)CCC4)C1 [Example 4] | 10 to 50% | 10 to 50% | ≥ 50% | 6.00 to 7.00 | – | – |
| C#Cc1ccc(-c2nnc(N[C@@H]3CCCN(C)C3)c3c4c(cn23)CCC4)c(O)c1 [Example 11] | – | – | – | – | 75.56% | – |
